# Source: US10543212B2, “Substituted amines for treating cardiac diseases” (Cardurion Pharmaceuticals, LLC, priority 2017, dated 2020)
# Molecular target: T1, Full-length, GST-tagged, human CaMKIIδ (Homo sapiens, UniProt Q13557)
# T1 construct: Full-Length, Glutathione-S-Transferase(GST)-Tagged, Human CaMKIIδ was purchased from Carna Biosciences; purchased Carna Biosciences 02-111
# Assay: CaMKIIδ binding assay (TR-FRET with BODIPY-labeled probe ligand)
# Details: CaMKIIδ binding assay, results of Table 2
# Procedure, shortened: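 TR-FRET probe-displacement binding: 0.5 nM GST-CaMKIIδ with 10 μg/mL calmodulin, 1 mM CaCl2, 0.21 nM Tb-anti-GST Ab and 300 nM BODIPY probe in HEPES pH 7.6 buffer. Eight-point 4-fold dilutions, 1 hr at room temperature. IC50 from logistic fit; 100% inhibition defined by 3 μM parent compound.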
# T1 sequence (Q13557 1-478 isoform Q13557-12): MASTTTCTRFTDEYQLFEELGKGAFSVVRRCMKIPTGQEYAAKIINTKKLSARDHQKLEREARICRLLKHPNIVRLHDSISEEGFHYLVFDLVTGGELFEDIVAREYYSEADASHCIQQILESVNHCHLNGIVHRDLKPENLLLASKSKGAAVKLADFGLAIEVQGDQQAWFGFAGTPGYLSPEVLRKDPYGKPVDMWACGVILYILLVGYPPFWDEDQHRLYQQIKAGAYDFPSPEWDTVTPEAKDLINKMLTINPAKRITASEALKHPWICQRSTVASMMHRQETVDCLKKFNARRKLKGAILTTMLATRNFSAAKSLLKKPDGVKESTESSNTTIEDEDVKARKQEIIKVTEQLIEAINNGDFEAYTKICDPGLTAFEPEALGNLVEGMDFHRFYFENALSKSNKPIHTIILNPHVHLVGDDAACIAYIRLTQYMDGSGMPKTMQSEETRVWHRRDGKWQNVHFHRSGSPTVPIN
row,Compound,IC50 [nM]
1,"C[C@@H](Cn1cnnn1)Oc1cc(-c2cnc(Nc3cn(C4CCN(Cc5cccnc5)CC4)nc3C(F)(F)F)nc2)ccc1Cl [Example 563, (S)-5-(3-((1-(1H-tetrazol-1-yl)propan-2-yl)oxy)-4-chlorophenyl)-N-(1-(1-(pyridin-3-ylmethyl)piperidin-4-yl)-3-(trifluoromethyl)-1H-pyrazol-4-yl)pyrimidin-2-amine]",10 to 100
2,"C[C@@H](Cn1cnnn1)Oc1cc(-c2cnc(Nc3ccc4c(c3)CCN4C(=O)OC(C)(C)C)nc2)ccc1Cl [Example 450, tert-butyl (S)-5-((5-(3-((1-(1H-tetrazol-1-yl)propan-2-yl)oxy)-4-chlorophenyl)pyrimidin-2-yl)amino)indoline-1-carboxylate]",≥ 100
3,"C[C@@H](Cn1cnnn1)Oc1cc(-c2cnc(Nc3cc4c(cc3Cl)CCNCC4)nc2)ccc1Cl [Example 507, (S)-N-(5-(3-((1-(1H-tetrazol-1-yl)propan-2-yl)oxy)-4-chlorophenyl)pyrimidin-2-yl)-8-chloro-2,3,4,5-tetrahydro-1H-benzo[d]azepin-7-amine]",< 10
4,"COc1cc2c(cc1Nc1ncc(-c3ccc(Cl)c(O[C@@H](C)Cn4cnnn4)c3)cn1)CN(C(=O)CN1CCOCC1)CC2 [Example 501, (S)-1-(7-((5-(3-((1-(1H-tetrazol-1-yl)propan-2-yl)oxy)-4-chlorophenyl)pyrimidin-2-yl)amino)-6-methoxy-3,4-dihydroisoquinolin-2(1H)-yl)-2-morpholinoethan-1-one]",10 to 100
5,"COc1cc2c(cc1Nc1ncc(-c3ccc(Cl)c(O[C@@H](C)Cn4cnnn4)c3)cn1)CN(c1ccnc(C)n1)CC2 [Example 504, (S)-N-(5-(3-((1-(1H-tetrazol-1-yl)propan-2-yl)oxy)-4-chlorophenyl)pyrimidin-2-yl)-6-methoxy-2-(2-methylpyrimidin-4-yl)-1,2,3,4-tetrahydroisoquinolin-7-amine]",10 to 100
6,"COc1cc(C2CCCNC2)ccc1Nc1ncc(-c2ccc(C#N)c(O[C@@H](C)Cn3cnnn3)c2)cn1 (stereo partly drawn) [Example 472, 2-(((S)-1-(1H-tetrazol-1-yl)propan-2-yl)oxy)-4-(2-((2-methoxy-4-(piperidin-3-yl)phenyl)amino)pyrimidin-5-yl)benzonitrile]",< 10
7,"C[C@@H](Cn1cnnn1)Oc1cc(-c2cnc(Nc3cc(N4CCC(N5CCOCC5)CC4)cnc3OCC(F)(F)F)nc2)ccc1Cl [Example 581, (S)-5-(3-((1-(1H-tetrazol-1-yl)propan-2-yl)oxy)-4-chlorophenyl)-N-(5-(4-morpholinopiperidin-1-yl)-2-(2,2,2-trifluoroethoxy)pyridin-3-yl)pyrimidin-2-amine]",< 10
8,"COc1cc2c(cc1Nc1ncc(-c3ccc(Cl)c(O[C@@H](C)Cn4cnnn4)c3)cn1)CCN(C(=O)CN1CCOCC1)C2 [Example 470, (S)-1-(6-((5-(3-((1-(1H-tetrazol-1-yl)propan-2-yl)oxy)-4-chlorophenyl)pyrimidin-2-yl)amino)-7-methoxy-3,4-dihydroisoquinolin-2(1H)-yl)-2-morpholinoethan-1-one]",< 10
9,"COc1cc2c(cc1Nc1ncc(-c3ccc(Cl)c(O[C@@H](C)Cn4cnnn4)c3)cn1)CN(C(=O)CO)CC2 [Example 522, (S)-1-(7-((5-(3-((1-(1H-tetrazol-1-yl)propan-2-yl)oxy)-4-chlorophenyl)pyrimidin-2-yl)amino)-6-methoxy-3,4-dihydroisoquinolin-2(1H)-yl)-2-hydroxyethan-1-one]",10 to 100

# Same assay, conditions: CaMKIIδ binding assay; activity class per Table 2
row,Compound,IC50 [nM]
1,"C[C@@H](Cn1cnnn1)Oc1cc(-c2cnc(Nc3cn([C@@H]4CCN(C5CCC5)C[C@H]4O)nc3C(F)(F)F)nc2)ccc1Cl (mixture of isomers) [Example 898, trans-4-(4-((5-(3-(((S)-1-(1H-tetrazol-1-yl)propan-2-yl)oxy)-4-chlorophenyl)pyrimidin-2-yl)amino)-3-(trifluoromethyl)-1H-pyrazol-1-yl)-1-cyclobutylpiperidin-3-ol]",< 10
2,"C[C@@H](Cn1cnnn1)Oc1cc(-c2cnc(Nc3cn(C4CC5(C4)CN(C4CCC4)C5)nc3OCC(F)(F)F)nc2)ccc1Cl [Example 933, (S)-5-(3-((1-(1H-tetrazol-1-yl)propan-2-yl)oxy)-4-chlorophenyl)-N-(1-(2-cyclobutyl-2-azaspiro[3.3]heptan-6-yl)-3-(2,2,2-trifluoroethoxy)-1H-pyrazol-4-yl)pyrimidin-2-amine]",< 10
3,"COc1cccc(Cn2cc(Nc3ncc(-c4ccc(Cl)c(O[C@@H](C)Cn5cnnn5)c4)cn3)c(OCC(F)(F)F)n2)n1 [Example 928, (S)-5-(3-((1-(1H-tetrazol-1-yl)propan-2-yl)oxy)-4-chlorophenyl)-N-(1-((6-methoxypyridin-2-yl)methyl)-3-(2,2,2-trifluoroethoxy)-1H-pyrazol-4-yl)pyrimidin-2-amine]",10 to 100
4,"C[C@@H](Cn1cnnn1)Oc1cc(-c2cnc(Nc3cn(C4CC5(CNC5)C4)nc3C(F)(F)F)nc2)ccc1Cl [Example 920, (S)-5-(3-((1-(1H-tetrazol-1-yl)propan-2-yl)oxy)-4-chlorophenyl)-N-(1-(2-azaspiro[3.3]heptan-6-yl)-3-(trifluoromethyl)-1H-pyrazol-4-yl)pyrimidin-2-amine]",< 10

# Same assay, conditions: Table 2; CaMKIIδ binding assay, activity given as class A/B/C
row,Compound,IC50 [nM]
1,"Cc1noc(C)c1Nc1ncc(-c2ccc(Cl)c(O[C@@H](C)Cn3cnnn3)c2)cn1 [Example 747, (S)-N-(5-(3-((1-(1H-tetrazol-1-yl)propan-2-yl)oxy)-4-chlorophenyl)pyrimidin-2-yl)-3,5-dimethylisoxazol-4-amine]",10 to 100
2,"C[C@@H](Cn1cnnn1)Oc1cc(-c2cnc(Nc3cn([C@H]4CC[C@H](N5CCC(F)(F)C5)CC4)nc3OC3COC3)nc2)ccc1Cl [Example 864, 5-(3-(((S)-1-(1H-tetrazol-1-yl)propan-2-yl)oxy)-4-chlorophenyl)-N-(1-(trans-4-(3,3-difluoropyrrolidin-1-yl)cyclohexyl)-3-(oxetan-3-yloxy)-1H-pyrazol-4-yl)pyrimidin-2-amine]",< 10
3,"C[C@@H](Cn1cnnn1)Oc1cc(-c2cnc(Nc3cn(C)nc3OCC(F)(F)F)nc2)ccc1C#N [Example 765, (S)-2-((1-(1H-tetrazol-1-yl)propan-2-yl)oxy)-4-(2-((1-methyl-3-(2,2,2-trifluoroethoxy)-1H-pyrazol-4-yl)amino)pyrimidin-5-yl)benzonitrile]",< 10
4,"Cc1cc(Nc2ncc(-c3ccc(Cl)c(O[C@@H](C)Cn4cnnn4)c3)cn2)n(C)n1 [Example 751, (S)-5-(3-((1-(1H-tetrazol-1-yl)propan-2-yl)oxy)-4-chlorophenyl)-N-(1,3-dimethyl-1H-pyrazol-5-yl)pyrimidin-2-amine]",10 to 100
5,"C[C@@H](Cn1cnnn1)Oc1cc(-c2cnc(Nc3cc(N4CC(CN5CCOCC5)C4)ccc3F)nc2)ccc1C#N [Example 762, (S)-2-((1-(1H-tetrazol-1-yl)propan-2-yl)oxy)-4-(2-((2-fluoro-5-(3-(morpholinomethyl)azetidin-1-yl)phenyl)amino)pyrimidin-5-yl)benzonitrile]",< 10
6,"C[C@@H](Cn1cnnn1)Oc1cc(-c2cnc(Nc3cn([C@H]4CC[C@@H](N5CCOCC5)CC4)nc3C(F)(F)F)nc2)ccc1F [Example 807, 5-(3-(((S)-1-(1H-tetrazol-1-yl)propan-2-yl)oxy)-4-fluorophenyl)-N-(1-(cis-4-morpholinocyclohexyl)-3-(trifluoromethyl)-1H-pyrazol-4-yl)pyrimidin-2-amine]",10 to 100
7,"C[C@@H](Cn1cnnn1)Oc1cc(-c2cnc(Nc3cn([C@H]4CC[C@@H](N5CC(C)(O)C5)CC4)nc3C(F)(F)F)nc2)ccc1Cl [Example 803, 1-(cis-4-(4-((5-(3-(((S)-1-(1H-tetrazol-1-yl)propan-2-yl)oxy)-4-chlorophenyl)pyrimidin-2-yl)amino)-3-(trifluoromethyl)-1H-pyrazol-1-yl)cyclohexyl)-3-methylazetidin-3-ol]",< 10

# Same assay, conditions: Table 2; activity class for CaMKIIδ
row,Compound,IC50 [nM]
1,"C[C@@H](Cn1cnnn1)Oc1cc(-c2cnc(Nc3cn(CC4CCCN4C4CCOCC4)nc3C(F)(F)F)nc2)ccc1Cl (stereo partly drawn) [Example 611, 5-(3-(((S)-1-(1H-tetrazol-1-yl)propan-2-yl)oxy)-4-chlorophenyl)-N-(1-((1-(tetrahydro-2H-pyran-4-yl)pyrrolidin-2-yl)methyl)-3-(trifluoromethyl)-1H-pyrazol-4-yl)pyrimidin-2-amine]",< 10
2,"COc1cc(N2CCN(C3CCOCC3)C[C@@H]2C)ccc1Nc1ncc(-c2ccc(Cl)c(O[C@@H](C)Cn3cnnn3)c2)cn1 [Example 654, 5-(3-(((S)-1-(1H-tetrazol-1-yl)propan-2-yl)oxy)-4-chlorophenyl)-N-(2-methoxy-4-((S)-2-methyl-4-(tetrahydro-2H-pyran-4-yl)piperazin-1-yl)phenyl)pyrimidin-2-amine]",< 10
3,"C[C@@H](Cn1cnnn1)Oc1cc(-c2cnc(Nc3cn(C4CCN(C5CCOCC5)CC4)nc3C#N)nc2)ccc1Cl [Example 592, (S)-4-((5-(3-((1-(1H-tetrazol-1-yl)propan-2-yl)oxy)-4-chlorophenyl)pyrimidin-2-yl)amino)-1-(1-(tetrahydro-2H-pyran-4-yl)piperidin-4-yl)-1H-pyrazole-3-carbonitrile]",< 10
4,"C[C@@H](Cn1cnnn1)Oc1cc(-c2cnc(Nc3cn([C@@H]4C[C@H]5CC[C@@H](C4)N5C(=O)OC(C)(C)C)nc3C(F)(F)F)nc2)ccc1Cl [Example 701, tert-butyl (1R,3s,5S)-3-(4-((5-(3-(((S)-1-(1H-tetrazol-1-yl)propan-2-yl)oxy)-4-chlorophenyl)pyrimidin-2-yl)amino)-3-(trifluoromethyl)-1H-pyrazol-1-yl)-8-azabicyclo[3.2.1]octane-8-carboxylate]",≥ 100
